In one series the test system is mice. Description: Acrolein-treated animal model (oral gavage) compared with vehicle control: glucose handling, renal function, kidney histology. Type of series: in vivo. The procedure:
To investigate the role of acrolein in the pathogenesis of diabetic nephropathy (DN), we compared the renal function of HFD/STZ-induced DN mice and mice treated with acrolein (2.5 mg/kg, p.o.) as shown in FIG. 2A.
We further explored the pathological abnormalities in HFD/STZ-induced DN mice and acrolein-treated mice.

The subject of series [1] is acrolein-modified BSA (Acr-BSA) or acrolein-modified OVA (Acr-OVA). Description: ELISA of hybridoma clones / purified Acr-PC antibody against acrolein-modified proteins. Type of series: binding. The procedure:
Monoclonal antibody preparation. Female BALB/c mice were immunized three times with the acrolein-treated ovalbumin (Acr-OVA). Spleen cells from the immunized mice were fused with NS0 murine myeloma cells and cultured in a hypoxantineyamethopterinythymidine selection medium. Culture supernatants of the hybridoma were screened using an ELISA assay, pairs of wells in the microtiter plates on which acrolein-treated BSA (Acr-BSA) was absorbed. After being incubated with 100 μl of hybridoma supernatants and washed with Tris-buffered saline (TBS) containing 0.05% Tween 20 (TBST), the wells were incubated with HRP-conjugated goat anti-mouse IgG, followed by a substrate solution containing TMB. Hybridoma cells corresponding to supernatants that were positive on Acr-BSA or Acr-OVA and negative on BSA or OVA were then cloned by limiting dilutions. After the repeated screening, five clones were obtained. […] After antibody purification from hybridoma clone #5, we confirmed the specificity and examined the antibody titer using a similar ELISA assay described above.
(ELISA stands for enzyme-linked immunosorbent assay.)

Setting [2] is: mice kidney, acrolein group vs control group (FIG. 2I).
Setting [3] is: mice, acrolein group vs control group (FIG. 2I).
Where [4] appears, read: antibody purified from hybridoma clone #5 (FIG. 3B).

Take `C=CC=O` [acrolein]: in the series on mice (setting [2]), the “collagen fiber content and degree of fibrosis, Sirius red staining” value is recorded as “increased evidently”; the “positive immunohistochemical staining for Acr-PC in the glomeruli and renal tubules” value is given as “significantly increased”. Moreover, the “insulin intolerance, insulin tolerance tests (ITT)” value in the series on mice (mice, acrolein 2.5 mg/kg p.o., 16 weeks, severity not as high as in HFD/STZ mice (FIGS. 2D-E)) was “induced insulin intolerance”. Further, in the series on mice (mice, acrolein 2.5 mg/kg p.o., oral gavage for 16 weeks, vs control group (FIG. 2B)), the “blood glucose (fasting plasma glucose)” value was “did not increase blood glucose”. For the same molecule, in the series with mice (setting [3]), the “kidney histology, H&E staining” value is “disorderly, inflammatory cell infiltration in the interstitium and vacuolar lesion in the epithelial cells”; the “kidney histology, PAS staining” value is “glomerular mesangium expansion and extracellular matrix deposition”. The “urine albumin/creatinine ratio (UACR)” value in the series on mice (mice, oral gavage of acrolein for 12 weeks (FIG. 2F)) is given as “increased UACR, although not significantly”. Also, in the series on mice (mice, oral gavage of acrolein for 16 weeks, vs control group (FIG. 2F)), the “urine albumin/creatinine ratio (UACR)” value is listed as “significant increase”. The “uric acid (UA)” value with mice (mice, oral gavage of acrolein for 16 weeks, vs control group (FIG. 2G)) is reported as “significant increase”. The “blood urea nitrogen (BUN)” value with mice (mice, oral gavage of acrolein for 16 weeks, vs control group (FIG. 2H)) is “significant increase”.

B1: clone #5: monoclonal antibody purified from hybridoma clone #5 recognizing acrolein-protein conjugate; heavy chain SEQ ID NO:1, light chain SEQ ID NO:2 (antibody, listed as Mus musculus, V domains shown)
VH: QVQLQESGAELARPGASVRLSCKASGNIFPDHSINWVKQRTGQGLEWIGEIFHGSGNTYYNEKFKGKATLTADKSSTTVYLQLTSLTSEDSAVYFCARWVYGSSFFDVWGAGTTVTVSSAKTTPPSVYPLAP
VL: DIVLTQTPASLAVSLGQTITIFCRASESVEYYGTNLMQWYQQKPGQPPRVLIYGASNVESGVPARFSGSGSGTDFSLNILPVEEDDIAMYFCQQSRKVPWTFGGGTKLEIKRADAAPTV
Consider B1, for which, in series [1] (setting [4]), the “antibody titer in ELISA” value was “high” and the “specificity in ELISA” value is given as “high specificity”. Further, the “recognition of Acr-BSA or Acr-OVA in ELISA” value in series [1] (hybridoma supernatant, among five clones (#1 to #5) (FIG. 3A)) is recorded as “most distinctive recognition of Acr-BSA or Acr-OVA”.

Source of the values: patent publication US12181483B2, “Kit comprising antibody binding acrolein-protein conjugate for diagnosing nephropathy” (National Yang Ming Chiao Tung University, priority 2022, dated 2024).
